Laboratory results published in patent US5582832A, “Compositions for topical application to skin” (priority 1995, dated 1996).

Experiments:
vitamin D metabolism = details: cited from earlier work
keratinocytes [1] = details: exogenous or endogenous; cited from earlier work
[2] = system: histamine induced erythema; details: cited from earlier work
keratinocytes [3] = experiment: Rate of DNA synthesis (3H-thymidine incorporation) in keratinocytes; format: cell-based, human
Description: (§1) 1. Normal human keratinocytes isolated from neonatal foreskins by trypsin treatment were grown in DME medium/10% fetal calf serum in the presence of irradiated 3T3 mouse fibroblasts for establishing dividing keratinocyte colonies. Keratinocytes were grown under the above condition until their third passage.
2. For the experiments, third passage keratinocytes were plated into a serum-free keratinocyte growth medium (KSFM; obtained from Life Technologies, Grand Island, N.Y.) containing 0.09 mM calcium. 20,000 to 30,000 cells were plated into each well of 24 well cell culture plates and grown for 5 days, until the cells reach about 80% confluence.
3. Medium was changed to fresh medium and the various test materials were added to the medium from an ethanolic stock solution (10:00 AM). The final ethanol concentration in the cultures was kept below 0.2%. Control cultures received no tested material but were dosed with 0.2% ethanol. Each compound or combination was tested in three separate wells. By 4:00 PM, 1 uCi of ^3 H-thymidine (Amersham Corp., Sp activity 40 Ci/mmol) was added to the 1 ml medium in each well. The cells were incubated overnight and […] (10:00 AM next day) the amount of ^3 -thymidine associated with the cellular DNA of keratinocytes was assessed as described below.
4. The medium was aspirated, and the wells washed with 1 ml phosphate-buffered saline. The DNA and proteins of the cells in the plate were then precipitated by adding 1 ml of ice-cold 10% trichloroacetic acid (TCA). The plates were left on ice for 30 minutes to complete the precipitation process. TCA was then aspirated and each well was then washed four times with 5% TCA. The plates were then dried on a filter pad and the cells in the wells were dissolved in 0.5 ml of 0.1N sodium hydroxide. The sodium hydroxide was then neutralized using 0.1N hydrochloric acid and the solution (1 ml total volume) was then transferred to a scintillation vial. 50 μl samples from each vial were used for protein assay using BCA protein assay reagent obtained from Pierce Chemical Company. 8 ml of a scintillation fluid (Ecolume) was added to the rest of the solution in the vial, and the vials were counted in a scintillation counter to determine the amount of radioactivity in each vial. The DNA synthesis rate was then calculated as cpm ^3 H thymidine incorporated into total cellular DNA/microgram of cell protein for each individual well. Mean and standard deviation for each group was also calculated.
Rationale for using 1,25D is that in in vivo situation, these azoles will inhibit the endogenous degradation of the 1,25D which is obtained from the circulation. Azoles will act in keratinocytes to increase the endogenous levels of 1,25D within cells. Keratinocytes (70% confluent) were incubated with 10 uM of the different azoles in the presence of 100 nM 1,25D. One of the groups was treated with 5 uM of ceramide of Formula A in the medium. After four hours, all the wells were treated with 1 uCi ^3 H-thymidine and the rate of DNA synthesis was estimated as described in the methods.
Keratinocytes were incubated with 1 or 10 uM of Econazole in the presence of 1 uM of the different ceramide analogues and 100 nM 1,25D in the medium. Thymidine incorporation was measured with an overnight incubation as described in Example 2.

[4] = system: 1,25D degradation (vitamin D metabolism in keratinocytes); experiment: Vitamin D metabolism in keratinocytes: 1,25D degradation; format: cell-based, human; details: for 1,25D (% degradation): Table 3, 10 uM
Description: as §1
(§2) 80% confluent keratinocytes were incubated with 0.05 uCi of ^3 H-25D or ^3 H-1,25D for two hours or 20 hours in the presence of 1-100 uM of the different compounds. Reaction was stopped by addition of methanol and the cells and medium were extracted using chloroform:methanol. The chloroform layer was separated, dried and spotted on TLC plates. […] The amount of radioactivity in each lane was quantitated using the BioScan radioactive plate reader. The amount of radioactivity remaining in the peak area of 25D and 1,25D were calculated as % of control. The % remaining was subtracted from 100 to get the % degradation of the metabolites.
(§3) The data are expressed as mean of % degradation of 25D or 1,25D. The range is also given in parenthesis.

[5] = system: 25D degradation (vitamin D metabolism in keratinocytes); experiment: Vitamin D metabolism in keratinocytes: 25D degradation; format: cell-based, human; details: for 25D (% degradation): Table 3, 10 uM
Description: as §1, §2, §3

[6] = Table 2, 1 uM, 20 hour incubation, mean of duplicate (range)

## CC(=O)N1CCN(c2ccc(OCC3COC(Cn4ccnc4)(c4ccc(Cl)cc4Cl)O3)cc2)CC1 (stereo not shown) [Ketoconazole, ketoconazole]
Vitamin D metabolism
  inhibition of vitamin D metabolism (in words): established inhibitor of vitamin D metabolism

## C=C1/C(=C\C=C2/CCC[C@]3(C)[C@@H]([C@H](C)CCCC(C)(C)O)CC[C@@H]23)C[C@@H](O)C[C@@H]1O [1,25-(OH)2 D3]
Keratinocytes [1]
  inhibition of DNA synthesis and induction of differentiation (in words): inhibit DNA synthesis (i.e., inhibit growth) and induce differentiation of keratinocytes

## c1ccc(-c2ccc(C(c3ccccc3)n3ccnc3)cc2)cc1 (stereo not shown) [Bifonazole]
[2]
  direct anti-inflammatory activity (in words): direct anti-inflammatory activity
Keratinocytes [3]; Table 4, 10 uM azole (or no azole) + 100 nM 1,25D + 5 uM ceramide Formula A, mean + SD, * = synergistic effect, 1440 min
  DNA synthesis, % of control (100 nM 1,25D + 5 uM ceramide Formula A): 44.4 + 7.3 % of control
Keratinocytes [3]; Table 4, 10 uM azole, 100 nM 1,25D, no ceramide, mean + SD, 1440 min
  DNA synthesis, % of control (azole, only 100 nM 1,25D): 75.8 + 4.3 % of control
Keratinocytes [3]; Tables 4A-4F, 100 nM 1,25D, azole 10 uM, ceramide Formula A 5 uM, 1440 min
  DNA synthesis (% control): 75.8 % control
Keratinocytes [3]; Tables 4A-4F, 100 nM 1,25D, azole 10 uM, ceramide Formula A 5 uM, mean + SD
  DNA synthesis: 111256 + 6355 cpm 3H thymidine incorporated
[4]; 1 uM, 20 hours (Table 2)
  blocking of 1,25D degradation (in words): very effective
[4]; 2 hours
  blocking of 1,25D metabolism (in words): ineffective
  1,25D (% degradation): 83%
[4]; 20 hours
  blocking of 1,25D metabolism (in words): very effective
  1,25D (% degradation): 56%
[4]; Table 1, 10 uM compound
  % degradation (1,25D): 56%
[4]; [6]
  1,25D degradation (%): 37.0 (25.4-48.6) %
[5]; 1 uM, 20 hours (Table 2)
  blocking of 25D degradation (in words): very effective
[5]; 2 hours
  blocking of 25D metabolism (in words): ineffective
  25D (% degradation): 89%
[5]; 20 hours
  blocking of 25D metabolism (in words): very effective
  25D (% degradation): 15%
[5]; Table 1, 10 uM compound
  % degradation (25D): 15%
[5]; [6]
  25D degradation (%): 41.2 (35.4-47.1) %

## C=C1CC[C@H](O)C/C1=C/C=C1\CCC[C@]2(C)[C@@H]([C@H](C)CCCC(C)(C)O)CC[C@@H]12 [25-hydroxyvitamin D (25D), 25-hydroxyvitamin D]
Keratinocytes [1]
  inhibition of DNA synthesis and induction of differentiation (in words): inhibit DNA synthesis (i.e., inhibit growth) and induce differentiation of keratinocytes
